Measured values: patent US5849777A, “Cell differentiation induction with mevalonate and mevalonolactone derivatives” (University of New Mexico, priority 1995, dated 1998)
Like-named read-outs stand apart in the source and are kept apart here.

Legend:
[1] = molecular target: T1, rat liver HMG-COA reductase (Rattus norvegicus, UniProt P51639); test: inhibition of rat liver HMG-CoA reductase activity; assay type: biochemical; conditions: Table I
T1 construct: rat liver HMG-COA reductase activity; from tissue; host or cells: rat liver
T1 sequence (P51639 1-887): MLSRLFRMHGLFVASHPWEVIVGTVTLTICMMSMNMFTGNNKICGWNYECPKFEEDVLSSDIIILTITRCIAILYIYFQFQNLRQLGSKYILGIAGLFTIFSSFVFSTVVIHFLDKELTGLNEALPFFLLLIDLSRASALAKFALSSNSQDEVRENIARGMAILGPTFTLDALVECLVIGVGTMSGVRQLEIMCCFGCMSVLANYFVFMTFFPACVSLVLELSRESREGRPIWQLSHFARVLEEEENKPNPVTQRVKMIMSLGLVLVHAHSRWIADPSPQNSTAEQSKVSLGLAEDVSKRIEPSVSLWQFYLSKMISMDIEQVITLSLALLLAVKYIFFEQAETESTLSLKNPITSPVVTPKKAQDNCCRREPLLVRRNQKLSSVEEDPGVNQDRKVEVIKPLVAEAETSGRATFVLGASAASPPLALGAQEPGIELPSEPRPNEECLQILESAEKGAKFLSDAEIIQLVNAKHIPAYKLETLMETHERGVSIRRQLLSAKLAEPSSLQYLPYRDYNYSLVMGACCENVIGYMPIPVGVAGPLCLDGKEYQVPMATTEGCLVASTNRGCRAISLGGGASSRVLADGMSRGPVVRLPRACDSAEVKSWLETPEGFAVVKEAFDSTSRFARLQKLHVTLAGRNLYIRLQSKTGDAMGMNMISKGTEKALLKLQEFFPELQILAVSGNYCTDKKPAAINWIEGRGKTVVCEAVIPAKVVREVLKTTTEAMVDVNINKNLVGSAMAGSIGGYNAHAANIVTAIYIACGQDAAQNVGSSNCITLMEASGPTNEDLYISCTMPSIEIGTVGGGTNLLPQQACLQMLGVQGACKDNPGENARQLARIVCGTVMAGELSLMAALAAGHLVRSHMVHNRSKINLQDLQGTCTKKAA
Excerpt: While a number of the compounds of the Formula I are known HMG-CoA reductase inhibitors, there is no apparent correlation between HMG-CoA reductase inhibitory activity and promotion of differentiation activity according to the invention. […] Accordingly, useful guidelines for selecting compounds having optimal differentiation-promoting activity according to the invention broadly comprise selecting compounds of the Formula I having the specified stereochemical configuration and an in vitro immunological activity as set forth in the in vitro assay of Example II, of at least about 3-fold.

[2] = test system: Human peripheral blood leukocytes; test: IgG production by human peripheral blood leukocytes (HPBL) in vitro; assay type: cell-based; conditions: for Inhibitory Concentration (concentration inhibiting nonspecific IgG production below normal production): HPBL, additional 90 h culture
Protocol: Human peripheral blood leukocytes were cultured in a standard tissue culture medium. Aliquots of these cultured cells (1,000,000 cells/ml medium) were cultured for 6 hours, and the specified amount of Formula II compound was added; the cells were then cultured for an additional 90 hours. Sheep red blood cells (SRBC) conditioned with class-specific (IgG) goat anti-human antiserum (1:400) for 2 hours; then guinea pig complement (2%) for 2 hours were conjugated to Protein A as described in detail in Radioimaging and Radioimmunotherapy, Eds. S. W. Burchiel and B. A. Rhodes, Elsevier Science Publishing; New York, 1983, pp. 125-127, incorporated herein by reference.
1. Concentration inhibiting nonspecific IgG production below normal production.

[3] = test system: CG tumor; test: chromium-release cell-mediated lympholysis (CML) vs CG tumor; assay type: in vivo, dog
Excerpt: Cellular immune response reflected the results reported in III, 1 above. […] This also is in the absence of CG antigen exposure. […] Thus both cellular and humoral immunity appear to be modulatable in the absence of antigen by the compounds of the instant invention.

[4] = test system: CG (canine glioma) cells; test: tumor-specific antibody production in vivo (anti-CG IgG titer); parameters: species or system dog
Excerpt: Titer of CG-specific antibody was compared to control [no administration of compound IIa' and no implantation of CG (canine glioma) cells]. […] This increase in titer continued with time until tumor regression was noted by independent measurement (NMR evaluation, below).
The results are particularly striking as the experimental tumor (brain glioma) is generally considered to enjoy a privileged position beyond the blood/brain barrier, substantially beyond the reach of the humoral immune system. Experimental protocols are described in detail below (FIGS. 7-9, Example VII).

[5] = test system: canine glioma cells; test: in vivo tumor inhibition: nude rat model; parameters: species or system Nude Rats (canine glioma cells)
Protocol: Fifty four Nude Rats (Harlan) were injected in the right flank with 5×10^6 canine glioma cells. Animals at the time of injection were between 52 and 63 days old and weighed approximately 200 g. The rats were divided into 7 groups, each group having a total number of 7 rats except for the control group, which totalled 12 animals. Compound IIc' was administered to the experimental animals at one of the following dose for each experimental group: 100 μg/kg, 10 μg/kg, 1 μg/kg, 0.1 μg/kg, 0.01 μg/kg and 0.001 μg/kg (phosphate buffer saline, M, W, F, I.P.). The control animals were injected with PBS (phosphate buffered saline) only. The volume of each injection was 100 μl. The injections of drug were simultaneously begun with injection of tumor cells. The animals were injected with the appropriate dosage of drug (1 ng/kg to […]) by I.P. injection and tumor length, width and depth were measured using caliphers each Monday, Wednesday and Friday (M, W, F) morning for approximately 9 weeks. Each point on the graphs represents the total of all rats for each group. […] The data were normalized for the greater number of control animals by multiplying the total tumor volume for the control animals by 7/12.

[6] = read-out: IC50 (concentration for 50% inhibition of rat liver HMG-COA reductase activity)

Q: What does the source list for `CC(C)c1nc(-c2ccccc2)n(-c2ccc(F)cc2)c1/C=C/[C@H](O)C[C@@H](O)CC(=O)O` [Compound IIc']?
A: IC50 [1, 6]: 22 nM; optimal dose in vitro (immune stimulation) ([2]; HPBL assay): 100 pM; Inhibitory Concentration (concentration inhibiting nonspecific IgG production below normal production) [2]: none found; immune stimulant (in words) ([2]; see Examples above): potent immune stimulant; slope "M" (LINEAR REGRESSION OF TOXICITY), Y = "M"X + B ([3]; December 14, 1987): 0.05; slope "M" (LINEAR REGRESSION OF TOXICITY), Y = "M"X + B ([3]; February 9, 1988): 0.35; slope "M" (LINEAR REGRESSION OF TOXICITY), Y = "M"X + B ([3]; February 17, 1988): 0.75; slope "M" (LINEAR REGRESSION OF TOXICITY), Y = "M"X + B ([3]; March 31, 1988): 0.05; IC-50% TITER (ANTI-CG) ([4]; treatment 2+ months, tumor regressed): BASELINE VALUES; optimal dose in vivo, equivalent concentration with uniform distribution ([5]; 100 ng/kg): 250 pM; most effective dosage for inhibition of canine glioma cells ([5]; I.P., M, W, F, approx. 9 weeks (FIG. 3)): 100 ng/kg; cytostatic activity ([5]; higher doses, 10 and 100 μg/kg I.P.): Little or no cytostatic activity; cytostatic activity ([5]; lowest dose, 1 ng/kg I.P.): Little or no cytostatic activity

Q: `CC(C)c1nc(-c2ccccc2)n(-c2ccc(F)cc2)c1/C=C/[C@@H](O)C[C@H](O)CC(=O)O` [IIb] was tested. Which IC50 [1, 6] did it give?
A: 1350 nM

Q: And the “Inhibitory Concentration (concentration inhibiting nonspecific IgG production below normal production)” value [2]?
A: none found

Q: What does the source list for `CC(C)c1nc(-c2ccccc2)n(-c2ccc(F)cc2)c1/C=C/[C@H](O)C[C@H](O)CC(=O)O` [IIa]?
A: IC50 [1]: 3150 nM; Inhibitory Concentration (concentration inhibiting nonspecific IgG production below normal production) [2]: none found; CML reactivity ([3]; after 5 weeks, tumor totally regressed): returned to baseline; CG-specific CML ([3]; after 14 days of administration, I.P., M, W, F): only baseline levels of CG-specific CML were present; CML reactivity ([3]; after a few days of exposure to the CG tumor implant): large increase in the CML reactivity; CML ([3]; after an additional 2 months, absence of CG antigen exposure): significant increase in CML; CG-specific antibody ([4]; at tumor regression, within a few days): reverted to baseline control levels; CG-specific antibody (IgG) production ([4]; following implantation of the CG tumor cells): increased significantly; titers of antibody over the control antibody titer ([4]; in the absence of antigen): titers of antibody increased over the control antibody titer significantly

Q: With `CC[C@H](C)C(=O)O[C@H]1C[C@@H](C)C=C2C=C[C@H](C)[C@H](CC[C@@H]3C[C@@H](O)CC(=O)O3)[C@H]21` [lovastatin, reference compound] as the compound, how does the “immune enhancement (in words)” value ([2]; Examples II and Table I) read?
A: no immune enhancement
